Laboratory results as given in ChEMBL document CHEMBL1139274, “Synthesis and evaluation of electron-rich curcumin analogues” (Bioorg Med Chem, 2009).

Key:
SK-BR-3 = experiment: Antiproliferative activity against human SKBR3 cells after 72 hrs by MTS-PMS assay; type: functional, cell-based; settings: SK-BR-3, 72 h
MCF7 = experiment: Antiproliferative activity against human MCF7 cells after 72 hrs by MTS-PMS assay; type: functional, cell-based; settings: MCF7, 72 h

Row | Compound | IC50 (SK-BR-3) [µM] | IC50 (MCF7) [µM]
1 | COc1cc(/C=C/c2cc(/C=C/c3ccc(O)c(OC)c3)on2)ccc1O | 4 | 1.76
2 | COc1ccc(/C=C/C(=O)C(C)C(=O)/C=C/c2ccc(OC)c(OC)c2)cc1OC | 1.02 | 1.09
3 | COc1ccc(/C=C/c2n[nH]c(/C=C/c3ccc(OC)c(OC)c3)c2C)cc1OC | > 100 | 8.16
4 | COC(=O)/C=C/c1c(/C=C/c2ccc(OC)c(OC)c2)n[nH]c1/C=C/c1ccc(OC)c(OC)c1 | > 100 | 49.5
5 | CCOc1ccc(/C=C/c2n[nH]c(/C=C/c3ccc(OCC)c(OC)c3)c2/C=C/C(=O)OC)cc1OC | 5.99 | 11.4
6 | COc1ccc(/C=C/c2cc(/C=C/c3ccc(OC)c(OC)c3)on2)cc1OC | > 100 | 59.5
7 | COc1ccc(/C=C/c2n[nH]c(/C=C/c3ccc(OC)c(OC)c3)c2/C=C/CO)cc1OC | > 100 | > 100
8 | CCOC(=O)CCc1c(/C=C/c2ccc(OC)c(OC)c2)noc1/C=C/c1ccc(OC)c(OC)c1 | > 100 | > 100
9 | COc1ccc(/C=C/c2noc(/C=C/c3ccc(OC)c(OC)c3)c2C)cc1OC | 42.5 | 55.7
10 | COc1ccc(/C=C/c2cc(/C=C/c3ccc(OC)c(OC)c3)[nH]n2)cc1OC | 1.58 | 12.7
11 | CCOC(=O)CCc1c(/C=C/c2ccc(OC)c(OC)c2)n[nH]c1/C=C/c1ccc(OC)c(OC)c1 | 11.7 | 10.1
12 | CCOC(=O)CCC(C(=O)/C=C/c1ccc(O)c(OC)c1)C(=O)/C=C/c1ccc(O)c(OC)c1 | 4.38 | 1.96
13 | CCOC(=O)/C=C/C(C(=O)/C=C/c1ccc(OC)c(OC)c1)C(=O)/C=C/c1ccc(OC)c(OC)c1 | 1.96 | 1.28
14 | COc1ccc(/C=C/C(=O)C(/C=C/CO)C(=O)/C=C/c2ccc(OC)c(OC)c2)cc1OC | 1.24 | 0.796
15 | COC(=O)/C=C/C(C(=O)/C=C/c1ccc(OC)c(OC)c1)C(=O)/C=C/c1ccc(OC)c(OC)c1 | 0.564 | 0.512
16 | CCOC(=O)CCC(C(=O)/C=C/c1ccc(OC)c(OC)c1)C(=O)/C=C/c1ccc(OC)c(OC)c1 | > 100 | > 100
17 | CCOC(=O)CCc1c(/C=C/c2ccc(O)c(OC)c2)n[nH]c1/C=C/c1ccc(O)c(OC)c1 | 5.6 | 6.01
18 | CCOC(=O)CCc1c(/C=C/c2ccc(O)c(OC)c2)noc1/C=C/c1ccc(O)c(OC)c1 | 13.9 | 13.2
19 | COc1ccc(/C=C/c2n[nH]c(/C=C/c3ccc(OC)c(OC)c3)c2/C=C/C(N)=O)cc1OC | 52.6 | 39.9
20 | COc1ccc(/C=C/C(=O)C(/C=C/C(N)=O)C(=O)/C=C/c2ccc(OC)c(OC)c2)cc1OC | 9.83 | 5.35
21 | COc1cc(/C=C/c2cc(/C=C/c3ccc(O)c(OC)c3)[nH]n2)ccc1O [CURCUMIN PYRAZOLE] | 0.258 | 4.19
22 | COc1cc(/C=C/C(=O)CC(=O)/C=C/c2ccc(O)c(OC)c2)ccc1O [CURCUMIN] | 2.11 | 5.58
23 | COc1ccc(/C=C/C(=O)CC(=O)/C=C/c2ccc(OC)c(OC)c2)cc1OC [TETRAMETHOXYCURCUMIN] | 0.955 | 1.07
